Results: patent publication US7589123B2, “Chemical compounds” (Phytopharm PLC, priority 2006, dated 2009)

Legend:
[1] = system: histamine-induced contractions in guinea pig ileum; assay: Inhibition of histamine-induced contractions in guinea pig ileum (Assay 3); conditions: Cavia porcellus, histamine 1.7 μM, read-out: Inhibition of histamine-induced contraction (%)
Procedure, shortened: (§1)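 Isolated male guinea pig ileum strips in Krebs at 32° C, pH 7.4, 1 g resting tension, isotonic recording. Contraction to test compound (3 and 30 μM) alone recorded, then inhibition of responses to histamine 1.7 μM or 5-HT 2.6 μM (~EC60-70, 5 min) measured in its continued presence.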

[2] = system: 5-HT-induced contractions in guinea pig ileum; assay: Inhibition of 5-HT-induced contractions in guinea pig ileum (Assay 3); conditions: Cavia porcellus, 5-HT 2.6 μM, read-out: Inhibition of 5-HT-induced contraction (%)
Procedure, shortened: as §1

[3] = system: IL-1α-induced PGE2 release; assay: IL-1α-induced PGE2 release in human diploid lung fibroblasts (WI-38) (Assay 5); assay type: cell-based; conditions: Homo sapiens, WI-38 cells, IL-1α 1 nM, overnight
Procedure, shortened: (§2)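 WI-38 fibroblasts stimulated overnight at 37 °C with 1 nM IL-1α plus test compound at 3 and 30 μM in MEM with 10% FBS, pH 7.3; released PGE2 in supernatant quantified by radioimmunoassay as percent inhibition. Viability then checked by Alamar Blue, 4 h at 37 °C, fluorescence ex 530/em 590 nm.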

WI-38 cells = assay: Viability of WI-38 cells, Alamar Blue (Assay 5); assay type: cell-based, human
Procedure, shortened: as §2

5-lipoxygenase = target: T1, 5-lipoxygenase (Homo sapiens, UniProt P09917); assay: 5-lipoxygenase activity (LTB4) in human peripheral blood mononuclear leukocytes (Assay 6); assay type: cell-based; conditions: human PBMLs, A23187 30 μM, read-out: Inhibition of 5-LO (%)
T1 construct: endogenous in cells; host or cells: human peripheral blood mononuclear leukocytes (PBMLs)
T1 sequence (P09917 1-674): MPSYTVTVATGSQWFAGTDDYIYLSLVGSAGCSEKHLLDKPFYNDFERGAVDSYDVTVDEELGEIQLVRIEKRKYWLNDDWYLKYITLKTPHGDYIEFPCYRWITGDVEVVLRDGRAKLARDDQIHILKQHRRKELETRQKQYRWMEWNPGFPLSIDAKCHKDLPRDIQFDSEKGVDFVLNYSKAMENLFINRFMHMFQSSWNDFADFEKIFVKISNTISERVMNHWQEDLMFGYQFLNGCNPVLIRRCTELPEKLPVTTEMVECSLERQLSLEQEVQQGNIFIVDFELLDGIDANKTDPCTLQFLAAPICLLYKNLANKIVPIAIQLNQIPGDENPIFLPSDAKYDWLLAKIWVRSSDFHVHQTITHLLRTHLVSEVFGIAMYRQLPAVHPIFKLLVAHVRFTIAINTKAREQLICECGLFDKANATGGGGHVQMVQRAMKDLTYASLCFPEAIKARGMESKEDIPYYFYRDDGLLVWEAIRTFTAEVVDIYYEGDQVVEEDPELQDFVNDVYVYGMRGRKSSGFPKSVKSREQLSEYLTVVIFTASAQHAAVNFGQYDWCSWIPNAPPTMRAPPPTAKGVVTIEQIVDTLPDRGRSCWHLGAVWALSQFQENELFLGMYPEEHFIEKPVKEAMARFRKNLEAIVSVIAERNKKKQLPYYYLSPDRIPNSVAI
Procedure, shortened: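 Human PBMLs (5×10^6 cells, Ficoll-isolated) stimulated with 30 μM A23187 plus compound at 3 or 30 μM or 0.1% DMSO in HBSS pH 7.4, 37° C., 15 min. After NaOH neutralisation and centrifugation, supernatant LTB4 measured by enzyme immunoassay.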

[4] = system: α-smooth muscle actin (α-SMA) mRNA; assay: Anti-remodelling activity in human lung fibroblasts (HFL1): TGFβ-induced α-SMA mRNA (Assay 4); assay type: cell-based; conditions: Homo sapiens, HFL1 cells, TGFβ 10 ng/ml, 24 h, read-out: Inhibition of α-SMA mRNA synthesis (%)
Procedure, shortened: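 Real-time RT-PCR of α-SMA mRNA, GAPDH as reference, measured after 24 h exposure of low-serum-primed HFL1 cells to 10 ng/ml TGFβ with test compounds (3 and 30 μM) in 10% FBS medium. Readout is inhibition of TGFβ-driven α-SMA mRNA overexpression.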

| Structure (SMILES) | inhibition at 3 µM [1] [%] | inhibition at 30 µM [1] [%] | inhibition at 3 µM [2] [%] | inhibition at 30 µM [2] [%] | inhibition at 3 µM [3] [%] | inhibition at 30 µM [3] [%] | Decrease in cell viability (%) (WI-38 cells; 3 μM) | Decrease in cell viability (%) (WI-38 cells; 30 μM) | inhibition at 3 µM (5-lipoxygenase) [%] | inhibition at 30 µM (5-lipoxygenase) [%] | inhibition at 3 µM [4] [%] | inhibition at 30 µM [4] [%] |
| --- | --- | --- | --- | --- | --- | --- | --- | --- | --- | --- | --- | --- |
| COc1cc(CCC(=O)CC(=O)c2ccccc2)ccc1O [Compound 69, 5-(4-Hydroxy-3-methoxyphenyl)-1-phenyl-pentane-1,3-dione] | 9 | 41 | 9 | 63 | 89 | 102 | 3 | 4 | 89 | 96 | 10 | 34 |
| COc1cc(CCC(=O)C(C)C(=O)c2ccccc2)ccc1O (stereo not drawn) [Compound 11, 5-(4-Hydroxy-3-methoxy-phenyl)-2-methyl-1-phenyl-pentane-1,3-dione] | 0 | 32 | 0 | 53 | 79 | 100 | 1 | −7 | 47 | 92 | 8 | 39 |
| COc1cc(CCC(=O)CC(=O)C(C)(C)C)ccc1O [Compound 2, 6,6-Dimethyl-1-(4-hydroxy-3-methoxyphenyl)-heptane-3,5-dione] | 0 | 28 | 8 | 79 | 88 | 102 | −2 | 4 | 30 | 76 | 5 | 27 |
| COc1cc(CCC(=O)CC(=O)C2(C)CC2)ccc1O [Compound 6, 5-(4-Hydroxy-3-methoxyphenyl)-1-(1-methylcyclopropyl)-pentane-1,3-dione] | 0 | 12 | 0 | 34 | 88 | 102 | 6 | 4 | 47 | 78 | -12 | 22 |
| COc1cc(CCC(=O)C(C)(C)C(=O)c2ccccc2)ccc1O [Compound 32, 2,2-Dimethyl-5-(4-hydroxy-3-methoxy-phenyl)-1-phenyl-pentane-1,3-dione] | 15 | 89 | 9 | 93 | 67 | 101 | −4 | −3 | 45 | 96 | 13 | 58 |
